Results as given in the supplement of paper PMC10307832.

Compound: CO[C@@H]1[C@H](N(C)C(=O)c2ccccc2)C[C@H]2O[C@]1(C)n1c3ccccc3c3c4c(c5c6ccccc6n2c5c31)C(=O)NC4 [Midostaurin] + CS(=O)(=O)CCNCc1ccc(-c2ccc3ncnc(Nc4ccc(OCc5cccc(F)c5)c(Cl)c4)c3c2)o1 [Lapatinib] (partner 2 µM)
Test: relative viability (nuclei count vs DMSO), 5 days (fraction); higher = more cells survive
Details: first compound 0.3162 µM
Procedure, shortened: (§1)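 After 5 days of treatment, lung cancer cells in 1536-well plates were fixed and stained in a single step (final 0.05% Triton X-100, 1% formaldehyde, 1 ug/ml Hoechst) and their nuclei counted on 4× images. Treatment had been applied by pin tool the day after seeding as one drug alone or as a fixed anchor-drug dose with five library-drug doses (not always all listed) in √10 steps. Relative viability is the nuclei count of treated wells divided by that of vehicle wells, and values are medians of duplicate plates.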

In order of rising relative viability:
1. A549  0.212
2. H3255  0.22
3. NCI-H2170  0.285
4. COR-L 105  0.344
5. NCI-H838  0.452
6. SK-MES-1  0.491
7. IA-LM  0.551
8. NCI-H1666  0.634
9. NCI-H2085  0.639
10. NCI-H1793  0.75
11. NCI-H520  0.781
12. LK-2  0.822
13. NCI-H2126  0.833
14. COR-L23  0.855
15. NCI-H1299  0.883
16. EMC-BAC-2  0.885
17. LOU-NH91  0.924
18. NCI-H1563  0.924
19. Calu-6  0.986
20. SW 1573  1.07
21. HCC-366  1.13
22. NCI-H1395  1.3
23. NCI-H596  1.34
24. NCI-H2087  1.4

Compound: CO[C@@H]1[C@H](N(C)C(=O)c2ccccc2)C[C@H]2O[C@]1(C)n1c3ccccc3c3c4c(c5c6ccccc6n2c5c31)C(=O)NC4 [Midostaurin] + COc1cccc2cc(-c3nc([C@H]4CC[C@H](C(=O)O)CC4)n4ncnc(N)c34)[nH]c12 [OSI-027] (partner 0.5 µM)
Test: as above
Details: first compound 0.01 µM
Procedure, shortened: as §1

In order of rising relative viability:
1. LK-2  0.232
2. NCI-H1648  0.285
3. NCI-H520  0.293
4. NCI-H1793  0.319
5. EMC-BAC-2  0.346
6. NCI-H1623  0.455
7. NCI-H838  0.481
8. LCLC-103H  0.506
9. NCI-H1993  0.519
10. SW 900  0.541
11. SK-MES-1  0.55
12. NCI-H2087  0.567
13. NCI-H1650  0.574
14. NCI-H1395  0.591
15. H3255  0.592
16. SW 1573  0.619
17. NCI-H441  0.629
18. ChaGo-K-1  0.645
19. NCI-H2342  0.667
20. NCI-H727  0.673
21. NCI-H2170  0.697
22. COR-L23  0.706
23. NCI-H522  0.712
24. NCI-H596  0.727
25. LOU-NH91  0.74
26. NCI-H2085  0.752
27. NCI-H1563  0.766
28. COR-L 105  0.793
29. NCI-H1666  0.8
30. NCI-H2126  0.808
31. HCC-366  0.961

Same assay, conditions: first compound 0.03162 µM

In order of falling relative viability:
1. HCC-366  0.954
2. SW 1573  0.82
3. NCI-H1666  0.794
4. NCI-H596  0.774
5. ChaGo-K-1  0.737
6. NCI-H522  0.729
7. NCI-H1563  0.727
8. NCI-H1650  0.71
9. COR-L23  0.681
10. NCI-H2170  0.681
11. NCI-H1395  0.675
12. LOU-NH91  0.67
13. NCI-H2085  0.655
14. NCI-H2342  0.619
15. COR-L 105  0.548
16. NCI-H1993  0.546
17. NCI-H2126  0.545
18. SK-MES-1  0.531
19. NCI-H441  0.525
20. H3255  0.512
21. NCI-H727  0.492
22. NCI-H2087  0.491
23. SW 900  0.484
24. NCI-H1623  0.471
25. LCLC-103H  0.417
26. NCI-H838  0.394
27. EMC-BAC-2  0.31
28. NCI-H1793  0.287
29. NCI-H520  0.24
30. LK-2  0.232
31. NCI-H1648  0.221

Same assay, conditions: first compound 0.1 µM

In order of falling relative viability:
1. NCI-H1666  0.883
2. NCI-H2085  0.837
3. COR-L23  0.795
4. SW 900  0.75
5. LOU-NH91  0.747
6. NCI-H1563  0.72
7. NCI-H2126  0.685
8. NCI-H2170  0.683
9. ChaGo-K-1  0.671
10. NCI-H522  0.668
11. NCI-H2342  0.658
12. NCI-H1650  0.647
13. H3255  0.622
14. NCI-H1395  0.615
15. COR-L 105  0.607
16. NCI-H596  0.598
17. SW 1573  0.581
18. NCI-H2087  0.573
19. HCC-366  0.567
20. SK-MES-1  0.548
21. NCI-H1993  0.54
22. NCI-H727  0.538
23. NCI-H1623  0.465
24. LCLC-103H  0.425
25. NCI-H441  0.405
26. NCI-H520  0.403
27. NCI-H838  0.382
28. EMC-BAC-2  0.336
29. NCI-H1648  0.275
30. NCI-H1793  0.263
31. LK-2  0.248

Same assay, conditions: first compound 0.3162 µM

In order of rising relative viability:
1. LK-2  0.197
2. NCI-H1793  0.216
3. EMC-BAC-2  0.218
4. NCI-H1648  0.233
5. NCI-H838  0.349
6. NCI-H520  0.359
7. SK-MES-1  0.44
8. NCI-H2085  0.461
9. LCLC-103H  0.465
10. SW 900  0.478
11. NCI-H727  0.479
12. NCI-H441  0.529
13. COR-L 105  0.551
14. NCI-H2087  0.554
15. NCI-H1623  0.561
16. NCI-H1993  0.576
17. H3255  0.593
18. NCI-H1650  0.597
19. ChaGo-K-1  0.599
20. NCI-H2126  0.666
21. NCI-H2342  0.74
22. NCI-H1563  0.745
23. SW 1573  0.748
24. NCI-H1395  0.763
25. NCI-H522  0.766
26. NCI-H2170  0.79
27. COR-L23  0.802
28. LOU-NH91  0.802
29. HCC-366  0.811
30. NCI-H1666  0.903
31. NCI-H596  0.904
